Data reported in US8802597B2, “Herbicidal pyrimidines” (E I du Pont de Nemours and Company, priority 2003, dated 2014).
Like-named read-outs stand apart in the source and are kept apart here.

Experiments:
Format in all cases: in vivo
[1] = system: barnyardgrass (Echinochloa crus-galli); assay: Test A pre/postemergence; details: Echinochloa crus-galli, 240 h, read-out: Plant response rating, Barnyardgrass; for pest or weed control at 125 g/ha: 125 g ai/ha; for pest or weed control at 500 g/ha: 500 g ai/ha
How it was run: (§1)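 Greenhouse herbicide test with preemergence directed soil spray and postemergence foliar spray at the 1- to 2-leaf stage; visual control rating 0–100 versus untreated at ~10 days.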

[2] = system: crabgrass (Digitaria sanguinalis); assay: Test A pre/postemergence; details: Digitaria sanguinalis, 240 h, read-out: Plant response rating, Crabgrass; for pest or weed control at 125 g/ha: 125 g ai/ha; for pest or weed control at 500 g/ha: 500 g ai/ha
How it was run: as §1

[3] = system: giant foxtail (Setaria faberi); assay: Test A pre/postemergence; details: Setaria faberi, 240 h, read-out: Plant response rating, Foxtail, Giant; for pest or weed control at 125 g/ha: 125 g ai/ha; for pest or weed control at 500 g/ha: 500 g ai/ha
How it was run: as §1

[4] = system: morningglory (Ipomoea spp.); assay: Test A pre/postemergence; details: Ipomoea, 240 h, read-out: Plant response rating, Morningglory; for pest or weed control at 125 g/ha: 125 g ai/ha; for pest or weed control at 500 g/ha: 500 g ai/ha
How it was run: as §1

[5] = system: redroot pigweed (Amaranthus retroflexus); assay: Test A pre/postemergence; details: Amaranthus retroflexus, 240 h, read-out: Plant response rating, Pigweed; for pest or weed control at 125 g/ha: 125 g ai/ha; for pest or weed control at 500 g/ha: 500 g ai/ha
How it was run: as §1

[6] = system: velvetleaf (Abutilon theophrasti); assay: Test A pre/postemergence; details: Abutilon theophrasti, 240 h, read-out: Plant response rating, Velvetleaf; for pest or weed control at 125 g/ha: 125 g ai/ha; for pest or weed control at 500 g/ha: 500 g ai/ha
How it was run: as §1

[7] = system: corn (Zea mays); assay: Test C pre/postemergence; details: Zea mays, post-emergence, Postemergence
How it was run: (§2)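 Test compounds, formulated in a non-phytotoxic solvent mix with surfactant, were applied to freshly planted seeds and, at the same time, to emerged plants at 1- to 4-leaf stage (2 to 18 cm). After 12 to 14 days in the greenhouse, response was scored visually versus controls, 0 = no effect, 100 = complete control.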

[8] = system: goosegrass (Eleusine indica); assay: Test C pre/postemergence; details: Eleusine indica, post-emergence, Postemergence
How it was run: as §2

[9] = system: lambsquarters (Chenopodium album); assay: Test C pre/postemergence; details: Chenopodium album, post-emergence, Postemergence
How it was run: as §2

[10] = system: soybean (Glycine max); assay: Test C pre/postemergence; details: Glycine max, post-emergence, Postemergence
How it was run: as §2

[11] = system: chickweed (Stellaria media); assay: Test C postemergence; details: Stellaria media, post-emergence
How it was run: as §2

[12] = post-emergence, Postemergence, 0 to 100 scale (0 no effect, 100 complete control)
[13] = pre-emergence, Preemergence, 0 to 100 scale where 0 is no effect and 100 is complete control, approximately ten days

## CCOC(=O)c1nc(-c2ccc(Br)cc2)nc(N)c1Cl [Compound 94, ethyl 6-amino-2-(4-bromophenyl)-5-chloro-4-pyrimidinecarboxylate]
[1]; [12]
  pest or weed control at 125 g/ha: 30%
  pest or weed control at 500 g/ha: 60%
[1]; [13]
  pest or weed control at 125 g/ha: 5%
  pest or weed control at 500 g/ha: 40%
[2]; [12]
  pest or weed control at 125 g/ha: 35%
  pest or weed control at 500 g/ha: 50%
[2]; [13]
  pest or weed control at 125 g/ha: 45%
  pest or weed control at 500 g/ha: 55%
[3]; [12]
  pest or weed control at 125 g/ha: 45%
  pest or weed control at 500 g/ha: 65%
[3]; [13]
  pest or weed control at 125 g/ha: 20%
  pest or weed control at 500 g/ha: 40%
[4]; [12]
  pest or weed control at 125 g/ha: 70%
  pest or weed control at 500 g/ha: 75%
[4]; [13]
  pest or weed control at 125 g/ha: 30%
  pest or weed control at 500 g/ha: 35%
[5]; [12]
  pest or weed control at 125 g/ha: 80%
  pest or weed control at 500 g/ha: 85%
[5]; [13]
  pest or weed control at 125 g/ha: 90%
  pest or weed control at 500 g/ha: 95%
[6]; [12]
  pest or weed control at 125 g/ha: 90%
  pest or weed control at 500 g/ha: 90%
[6]; [13]
  pest or weed control at 125 g/ha: 75%
  pest or weed control at 500 g/ha: 90%
[7]; 16 g ai/ha, read-out: Plant response rating (scale of 0 to 100), Corn
  Corn plant response rating (crop injury, 0 = no effect, 100 = complete kill) at 16 g/ha: 10%
[7]; 31 g ai/ha, read-out: Plant response rating (scale of 0 to 100), Corn
  Corn plant response rating (crop injury, 0 = no effect, 100 = complete kill) at 31 g/ha: 35%
[7]; 62 g ai/ha, read-out: Plant response rating (scale of 0 to 100), Corn
  Corn plant response rating (crop injury, 0 = no effect, 100 = complete kill) at 62 g/ha: 35%
[7]; 125 g ai/ha, scale 0 to 100 (0 no effect, 100 complete control), read-out: Corn plant response rating
  Corn plant response rating (crop injury, 0 = no effect, 100 = complete kill) at 125 g/ha: 60%
[8]; 16 g ai/ha, read-out: Plant response rating (scale of 0 to 100), Goosegrass
  pest or weed control at 16 g/ha: 35%
[8]; 31 g ai/ha, read-out: Plant response rating (scale of 0 to 100), Goosegrass
  pest or weed control at 31 g/ha: 60%
[8]; 62 g ai/ha, read-out: Plant response rating (scale of 0 to 100), Goosegrass
  pest or weed control at 62 g/ha: 80%
[8]; 125 g ai/ha, scale 0 to 100 (0 no effect, 100 complete control), read-out: Goosegrass plant response rating
  pest or weed control at 125 g/ha: 80%
[9]; 16 g ai/ha, read-out: Plant response rating (scale of 0 to 100), Lambsquarters
  pest or weed control at 16 g/ha: 95%
[9]; 31 g ai/ha, read-out: Plant response rating (scale of 0 to 100), Lambsquarters
  pest or weed control at 31 g/ha: 95%
[9]; 62 g ai/ha, read-out: Plant response rating (scale of 0 to 100), Lambsquarters
  pest or weed control at 62 g/ha: 95%
[9]; 125 g ai/ha, scale 0 to 100 (0 no effect, 100 complete control), read-out: Lambsquarters plant response rating
  pest or weed control at 125 g/ha: 100%
[10]; 16 g ai/ha, read-out: Plant response rating (scale of 0 to 100), Soybean
  plant injury at 16 g/ha: 100%
[10]; 31 g ai/ha, read-out: Plant response rating (scale of 0 to 100), Soybean
  plant injury at 31 g/ha: 100%
[10]; 62 g ai/ha, read-out: Plant response rating (scale of 0 to 100), Soybean
  plant injury at 62 g/ha: 100%
[10]; 125 g ai/ha, scale 0 to 100 (0 no effect, 100 complete control), read-out: Soybean plant response rating
  plant injury at 125 g/ha: 100%
[11]; 31 g ai/ha, read-out: Plant response rating (scale of 0 to 100), Chickweed
  pest or weed control at 31 g/ha: 45%
[11]; 62 g ai/ha, read-out: Plant response rating (scale of 0 to 100), Chickweed
  pest or weed control at 62 g/ha: 50%
[11]; 125 g ai/ha, scale 0 to 100 (0 no effect, 100 complete control), read-out: Chickweed plant response rating
  pest or weed control at 125 g/ha: 95%
